Reference: US20260200903A1, “PHARMACEUTICAL COMPOSITION FOR AMELIORATING MALIGNANT DISEASES” (KINKI UNIVERSITY, priority 2020, published 2026)

Experiments:
Type in all cases: cell-based
CD138 = CD138 expression in KMS-28BM cells, flow cytometry; conditions: 10 days, concentration lower than the IC50 (0.005-50 μM), compared to the positive control
Procedure: As a control, compounds untreated KMS-28BM cells were seeded in 75 cm^2 flasks and incubated for 10 days at 37° C. and 5% CO2. KMS-28BM cells were seeded into 75 cm^2 flasks and pre-cultured for 4 h. After incubation, KMS-28BM cells were treated with […], 0.05 μM M9, 0.1 μM yk-7, 0.1 μM yk-8-3, 50 μM yk-8-1, 0.5 μM M11, […], 0.005 μM M14, 0.005 μM M15, 0.005 μM M16, 0.5 μM M18, and 0.5 μM M19 at final concentrations, and incubated for 10 days at 37° C. and 5% CO2. This added amount is a concentration lower than the IC50 of the above compounds for KMS-28BM cells. After 10 days of incubation, cells were stained with anti-CD138 antibody, a marker of multiple myeloma grade, and CD138 expression was measured using BD LSRFortessa.
Results are shown in FIG. 17, FIG. 18, FIG. 19 and FIG. 20. The horizontal axis represents the expression level of CD138 and the vertical axis represents the number of cells.

[1] = test system: RPMI8226 cells (myeloma cell line); assay: Cell death inducing effect on RPMI8226 cells, trypan blue staining
Procedure: (§1) RPMI8226 cells (myeloma cell line) were cultured under 5% CO2 at 37° C. The culture medium used RPMI-1640 medium with 100 μg/mL penicillin, 100 U/mL streptomycin and fetal bovine serum. RPMI8226 cells were seeded into 96-well plates and incubated with each concentration of the compounds was added, and cell viability was determined by the trypan blue staining.
(§2) For controls, only 0.5% DMSO (diluted in PBS) used to dissolve the compounds was added. For each concentration, each bar line is indicated by an arrow with the sign “n, a, 1, 2, 3, 4, 5, 6, 7, 8, 9, 10, 11, 12” from left to right. The “1, 3, 5, 7, 9, 11” are omitted from the graph, but the sign “1” shall be indicated by an arrow between the signs “a” and “2”, the sign “3” between the signs “2” and “4”, and other odd numbers shall likewise be indicated by arrows between even numbers before and after.
(§3) The sign “n” is the norathyriol (formula (n)) administration group, the sign “a” is the mangiferin 8a (formula (a)) administration group, the sign “1” is the yk-7 (formula (1)) administration group, the sign “2” is the yk-8-1 (formula (2)) administration group, the sign “3” is the yk-8-3 (formula (3)) administration group, the sign “4” is the M7 (formula (4)) administration group, the sign “5” is the M9 (formula (5)) administration group, the sign “6” is the M11 (formula (6)) administration group, the sign “7” is the M12 (formula (7)) administration group, the sign “8” is the M14 (formula (8)) administration group, the sign “9” is the M15 (formula (9)) administration group, the sign “10” is the M16 (formula (10)) administration group, the sign “11” is the M18 (formula (11)) administration group, the sign “12” is the M19 (formula (12)) administration group, respectively. The IC50 values for each compound is also listed in the upper right corner of the figure.

[2] = test system: Rec-1 cells (mantle cell lymphoma cell line); assay: Cell death inducing effect on Rec-1 cells, trypan blue staining; conditions: Rec-1 (mantle cell lymphoma), cell viability
Procedure: as §1, with “Rec-1” for “RPMI8226”, “(mantle cell lymphoma” for “(myeloma”
as §2, §3

[3] = test system: SU-DHL-4 cells (diffuse large B-cell lymphoma); assay: Cell death inducing effect on SU-DHL-4 cells, trypan blue staining; conditions: SU-DHL-4 (DLBCL), cell viability
Procedure: SU-DHL-4 cells (diffuse large B-cell lymphoma) were cultured under 5% CO2 at 37° C.
The culture medium used RPMI-1640 medium with 100 μg/mL penicillin, 100 U/mL streptomycin and fetal bovine serum. SU-DHL-4 cells were seeded into 96-well plates and incubated with each concentration of the compounds was added, and cell viability was determined by the trypan blue staining.
as §2, §3

[4] = Homo sapiens, RPMI-8226, cell viability

Molecule	CD138 expression levels (CD138)	IC50 [1, 4]	IC50 ([2]; Homo sapiens, Rec1)	IC50 ([3]; Homo sapiens)	IC50 ([1]; cell viability)	IC50 [2]	IC50 [3]
CCCCC(=O)OC[C@H]1O[C@@H](c2c(O)cc3oc4cc(O)c(O)cc4c(=O)c3c2OC(=O)CCCC)[C@H](OC(=O)CCCC)[C@@H](OC(=O)CCCC)[C@@H]1OC(=O)CCCC [yk-8-3, 1,2′,3′,4′,6-penta-O-valerylmangiferin]	markedly reduced	2270 nM	3310 nM	346 nM	–	–	–
CCCCO[C@@H]1[C@@H](OCCCC)[C@H](c2c(O)cc3oc4cc(O)c(O)cc4c(=O)c3c2O)O[C@H](COC(=O)CCC)[C@H]1OC(=O)CCC [Compound M16, 2′,3′-di-O-butyl-4′,6′-di-O-butyrylmangiferin]	markedly reduced	91 nM	20 nM	11 nM	–	–	–
CCCCC(=O)OC[C@H]1O[C@@H](c2c(OC(=O)CCCC)cc3oc4cc(OC(=O)CCCC)c(OC(=O)CCCC)cc4c(=O)c3c2OC(=O)CCCC)[C@H](OC(=O)CCCC)[C@@H](OC(=O)CCCC)[C@@H]1OC(=O)CCCC [yk-8-1, 1,3,2′,3′,4′,6,6′,7-octa-O-valerylmangiferin]	markedly reduced	–	–	–	> 100000 nM	> 100000 nM	> 100000 nM
CC(C)(C)C(=O)OC[C@H]1O[C@@H](c2c(O)cc3oc4cc(O)c(O)cc4c(=O)c3c2O)[C@H](OC(=O)C(C)(C)C)[C@@H](OC(=O)C(C)(C)C)[C@@H]1OC(=O)C(C)(C)C [Compound M15, 2′,3′,4′,6′-tetra-O-pivaloylmangiferin]	markedly reduced	183 nM	32 nM	2 nM	–	–	–
CCCC(=O)OC[C@H]1O[C@@H](c2c(OC(=O)CCC)cc3oc4cc(OC(=O)CCC)c(OC(=O)CCC)cc4c(=O)c3c2OC(=O)CCC)[C@H](OC(=O)CCC)[C@@H](OC(=O)CCC)[C@@H]1OC(=O)CCC [Compound M11, 1,3,2′,3′,4′,6,6′,7-octa-O-butyrylmangiferin]	markedly reduced	–	–	–	3210 nM	926 nM	415 nM
O=c1c2cc(O)c(O)cc2oc2cc(O)cc(O)c12 [norathyriol, reference compound]	–	8870 nM	15800 nM	18400 nM	–	–	–
1,2′,3′,4′,6-penta-O-propionylmangiferin [Compound 8a, reference compound]	–	–	–	–	7090 nM	22500 nM	8060 nM
C=CCOc1cc(O)cc2oc3cc(O)c(O)cc3c(=O)c12 [Compound M19, 1-allyloxy-3,6,7-trihydroxy-9H-xanthen-9-one]	markedly reduced	9540 nM	21600 nM	17400 nM	–	–	–
CCC(=O)OC[C@H]1O[C@@H](c2c(O)cc3oc4cc(O)c(O)cc4c(=O)c3c2O)[C@H](OC(=O)CC)[C@@H](OC(=O)CC)[C@@H]1OC(=O)CC [Compound M9, 2′,3′,4′,6′-tetra-O-propionylmangiferin]	markedly reduced	696 nM	816 nM	86 nM	–	–	–
O=c1c2cc(O)c(O)cc2oc2cc(O)cc(OCCO)c12 [Compound M18, 3,6,7-trihydroxy-1-(2-hydroxyethoxy)-9H-xanthen-9-one]	markedly reduced	6870 nM	9120 nM	9580 nM	–	–	–
CCCCC(=O)OC[C@H]1O[C@@H](c2c(O)cc3oc4cc(O)c(O)cc4c(=O)c3c2O)[C@H](OC(=O)CCCC)[C@@H](OC(=O)CCCC)[C@@H]1OC(=O)CCCC [yk-7, 2′,3′,4′,6′-tetra-O-valerylmangiferin]	markedly reduced	2460 nM	2600 nM	288 nM	–	–	–
CCCC(=O)OC[C@H]1O[C@@H](c2c(O)cc3oc4cc(O)c(O)cc4c(=O)c3c2OC(=O)CCC)[C@H](OC(=O)CCC)[C@@H](OC(=O)CCC)[C@@H]1OC(=O)CCC [Compound M12, 1,2′,3′,4′,6-penta-O-butyrylmangiferin]	markedly reduced	291 nM	951 nM	5 nM	–	–	–
CCC(=O)OC[C@H]1O[C@@H](c2c(OC(=O)CC)cc3oc4cc(OC(=O)CC)c(OC(=O)CC)cc4c(=O)c3c2OC(=O)CC)[C@H](OC(=O)CC)[C@@H](OC(=O)CC)[C@@H]1OC(=O)CC [Compound M7, 1,3,2′,3′,4′,6,6′,7-octa-O-propionylmangiferin]	markedly reduced	6420 nM	2250 nM	771 nM	–	–	–
CCCC(=O)OC[C@H]1O[C@@H](c2c(O)cc3oc4cc(O)c(O)cc4c(=O)c3c2O)[C@H](OC(=O)CCC)[C@@H](OC(=O)CCC)[C@@H]1OC(=O)CCC [Compound M14, 2′,3′,4′,6′-tetra-O-butyrylmangiferin]	markedly reduced	121 nM	24 nM	2 nM	–	–	–
